Assay results published in the supplement of paper PMC5844555.

Columns and labels:
Test in all cases: 3' UTR reporter interaction score (median-centred robust z-score of log2 firefly/Renilla activity); higher = less repression of the 3' UTR reporter
Details in all cases: HEK293T; 48 h
MYC = test system: MYC
In short: (§1)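 Using DharmaFECT Duo, HEK293T cells (10,000/well, 96-well plates) were co-transfected with 2.5 pmol miRNA mimic, 100 ng firefly luc2P reporter containing the gene's 3' UTR and 20 ng Renilla pRL-TK control, and dual-luciferase activity was read 48 h later. The interaction score is the log firefly/Renilla ratio as a per-plate robust z-score (median, median absolute deviation), median-centred per miRNA, averaged over at least two independent screens; lower, more negative values indicate interaction.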

ZEB2 = test system: ZEB2
In short: as §1

HRAS = test system: HRAS
In short: as §1

MYT1L = test system: MYT1L
In short: as §1

NOTCH1 = test system: NOTCH1
In short: as §1

FBXW7 = test system: FBXW7
In short: as §1

MYB = test system: MYB
In short: as §1

PHF6 = test system: PHF6
In short: as §1

MYCN = test system: MYCN
In short: as §1

TP53 = test system: TP53
In short: as §1

BRCA2 = test system: BRCA2
In short: as §1

RB1 = test system: RB1
In short: as §1

EZH2 = test system: EZH2
In short: as §1

PHOX2B = test system: PHOX2B
In short: as §1

Sequence	3' UTR reporter interaction score (MYC)	3' UTR reporter interaction score (ZEB2)	3' UTR reporter interaction score (HRAS)	3' UTR reporter interaction score (MYT1L)	3' UTR reporter interaction score (NOTCH1)	3' UTR reporter interaction score (FBXW7)	3' UTR reporter interaction score (MYB)	3' UTR reporter interaction score (PHF6)	3' UTR reporter interaction score (MYCN)	3' UTR reporter interaction score (TP53)	3' UTR reporter interaction score (BRCA2)	3' UTR reporter interaction score (RB1)	3' UTR reporter interaction score (EZH2)	3' UTR reporter interaction score (PHOX2B)
ACUUGUAUGCUAGCUCAGGUAG	0.231	0.0953	0.169	0.252	-2.55	0.132	-0.993	0.16	-0.194	-0.611	0.171	0.468	0.301	0.171
AGACCAUGGGUUCUCAUUGU	0.53	-1.1	-0.0387	0.673	-0.0186	-0.214	-0.2	1.61	0.149	-0.82	-2.41	-1.2	0.304	-1.43
AGACCCUGGUCUGCACUCUAU	2.47	-0.0019	1.38	-1.4	-0.49	1.02	0.748	-3.41	1.92	-5.07	0.647	-2.99	2.76	-0.928
AGACCUGGCCCAGACCUCAGC	0.0891	-0.702	-0.381	-3.18	-0.568	0.099	0.0206	-0.218	0.863	0.562	-0.79	-2.21	0.316	-0.381
AGACUUCCCAUUUGAAGGUGGC	-0.381	0.705	-0.109	0.482	-0.842	0.497	0.287	1.01	-2.21	-0.0594	-0.566	0.0148	0.311	0.285
AGAGGCUGGCCGUGAUGAAUUC	-1.78	0.958	-0.467	-1.95	0.488	-0.536	0.549	2.37	0.202	-1.7	-0.104	-0.425	0.351	1.42
AGAGGUAGUAGGUUGCAUAGU	-2.12	-0.685	1	-0.701	-0.39	-0.0422	0.728	0.956	-3.2	0.943	0.509	-0.186	-3.25	-0.956
AGAGGUAUAGGGCAUGGGAAAA	0.244	1.12	-0.616	0.692	0.463	-0.74	0.665	0.541	-2.96	-0.403	0.942	-0.615	-0.166	-0.404
AGAUCGACCGUGUUAUAUUCGC	0.022	-1.03	0.57	-1.38	0.965	-0.751	-1.19	0.689	0.592	-2.1	0.451	0.976	0.0389	-0.0818
AGCAGCAUUGUACAGGGCUAUCA	0.869	1.43	0.106	-2.1	-0.476	-2.69	-2.18	1.3	0.215	-0.509	1.96	1.3	-1	-0.507
AGCAGCAUUGUACAGGGCUAUGA	1.13	0.465	-0.255	-1.07	-0.182	-0.997	-1.03	2.88	0.0597	0.727	0.461	-1.15	-0.463	1.07
AGCUACAUCUGGCUACUGGGUCUC	0.941	-1.04	1.2	-0.398	0.41	0.465	-3.44	-0.555	1.39	0.614	-0.144	-3.28	-0.0907	0.255
AGCUACAUUGUCUGCUGGGUUUC	0.427	-0.124	0.0503	-0.38	0.703	1.22	-4.52	-0.314	0.451	0.277	-0.328	-3.13	0.0119	0.602
AGCUCGGUCUGAGGCCCCUCAG	-0.504	2.05	0.284	3.65	1.23	0.253	0.304	0.229	-0.643	0.0655	1.86	3.69	-0.671	-1.22
AGCUGGUGUUGUGAAUC	0.179	0.43	-0.334	0.16	0.152	-0.398	0.129	-0.508	0.275	0.136	-0.493	-0.243	-0.157	0.54
AGCUGUCUGAAAAUGUCUU	0.303	-0.552	-0.208	0.171	-0.774	0.675	-0.536	-0.786	-0.701	0.132	-0.293	0.19	-0.132	1.04
AGGAAGCCCUGGAGGGGCUGGAGGU	-0.314	-0.152	0.456	1.24	-1.34	-0.101	0.39	-0.529	1.43	0.127	-1.21	-0.165	-0.359	1.18
AGGAAUGUUCCUUCUUUGCC	0.63	2.6	0.683	-0.098	-0.469	-2.13	-0.0682	-0.446	-0.0855	-0.812	-1.4	0.276	-0.309	2.32
AGGACCUGCGGGACAAGAUUCUU	-0.0464	0.526	-0.0697	-0.0205	0.243	-0.188	0.35	-0.476	-0.207	-0.45	0.115	0.102	-0.425	1.33
